Literature values, collected in patent US11213539B2, “Use of ivermectin and brimonidine in the treatment and/or prevention of moderate to severe rosacea” (GALDERMA HOLDING SA, priority 2015, dated 2022).

System: patients treated with brimonidine 0.33% gel
Settings: brimonidine used alone; in a number of patients, in particular worsening of erythema (rebound)

For `Brc1c(NC2=NCCN2)ccc2nccnc12` [brimonidine], the related adverse effects is given as “excessive”.
